Test results from PMC10747602, “Dose Response, Dosimetric, and Metabolic Evaluations of Replacement PFAS Perfluoro-(2,5,8-trimethyl-3,6,9-trioxadodecanoic) Acid (HFPO-TeA)” (Toxics, 2023).
Several values for one entry are separate records, joined by “and”; a condition that tells them apart may be missing. Equal values may be shown once.

Assays:
hepatocytes = assay: Hepatic metabolite formation assay with non-targeted analysis; assay type: in vitro ADME, human and rat; details: in vitro hepatocyte assays
Experimental: Extracts of plasma (50 µL), liver (10 mg), and hepatocyte metabolism assay media (10 µL) were analyzed by high-resolution, accurate mass non-targeted analysis (NTA) for the detection and identification of potential biotransformation products of HFPO-TeA. A mixture of ^13C-labeled PFAS compounds (MPAC-C-ES, Wellington Laboratories, Guelph, ON, Canada) were used as tracers. Samples were extracted, as detailed above (in vivo) and below (in vitro), and then analyzed in triplicate in a randomized order on a Sciex X500R QTOF. Additional information on NTA instrumental analysis and data processing parameters is presented in Supplementary Text S8 and Tables S8 and S10 [52]. […] A screening list of potential biotransformation products was generated using the U.S. EPA web application CTS: Chemical Transformation Simulator 1.0 and Biotransformer 3.0 [53, 54]. In some instances, molecular structure predictions were performed using MetFrag.
For the hepatic metabolite formation assays, the procedure described above was followed with the following modifications: assay concentrations of 50 and 100 µM were used, and samples were collected at times T0, T30, T60, and T120 min. Aliquots (10 µL) were combined with an equal volume of H2O. Non-targeted screening of potential biotransformation or degradation products of these samples was performed on the Sciex instrumentation described above.

rat hepatocytes = assay: Hepatocyte metabolic stability (clearance) assay, rat hepatocytes
In short: (§1)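 Pooled cryopreserved human or rat hepatocytes (50,000 cells/100 µL, Williams' E with dexamethasone) were incubated with 1 µM compound (final) at 37 °C, 5% CO2, with shaking. Samples taken at 0–240 min were quenched with acidified acetonitrile, and parent compound was quantified by UPLC-MS/MS in negative ion mode. Intrinsic clearance was then calculated.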

human hepatocytes = assay: Hepatocyte metabolic stability (clearance) assay, human hepatocytes; details: for Negative Control Data, No cells (NC), Ln Concentration / Negative Control Data, Heat Treated (HT), Ln Concentration / Ln Concentration: Rep 1-3
In short: as §1

[1] = In vitro-in vivo extrapolation (IVIVE) to estimate Css, human
Experimental: Fraction unbound (fu) in plasma (fup) and percent stability calculations are detailed in Supplementary Text S10. Hepatic clearance, the fu in blood (fub) (fu in plasma adjusted for blood:plasma partitioning), and renal clearance were used to derive the steady-state concentration (Css) of each compound that will be used for in vitro–in vivo extrapolation (IVIVE). Renal clearance was calculated using the glomerular filtration rate (a species-dependent constant) and the fub. The Css calculation is detailed in Supplementary Text S11.
Linear regression analysis in conjunction […]
cells in the Clint equation. […]
concentration by the T300 min concentration (Equation E). Chemical stability in plasma was assessed […]
(F) Percent Stability = T300minutesT60minutes∗100 […]
blood (fub) of the parent compound. The Clhepatic calculation is shown in the second part of the denominator of Equation G; it is the product of the species dependent liver blood flow constant, the fub of the parent compound, and the experimentally derived intrins ic clearance (s hown in Equation D) divided by the sum these three values. All values used in Equation G are for first order conditions of metabolism in the liver. All calculations, scalars, and species dependent values used to conduct the Css calculation to facilitate in vitro-in vivo extrapolation (IVIVE) are provided Table S19 within the Excel worksheet, the tab […]
Based on the principle of reverse dosimetry, the Css values derived from IVIVE will be u sed as conversion factors to generate AEDs according to Equation H. In this equation, the AED is linearly related to the in vitro concentration and inversely related to the Css. It is only valid for first-order metabolism that is expected at ambient exposure levels.
(H) AED ൮ mgkg൲ = in vitro concentration (µM )

Question: Which results are given for `O=C(O)C(F)(OC(F)(F)C(F)(OC(F)(F)C(F)(OC(F)(F)C(F)(F)C(F)(F)F)C(F)(F)F)C(F)(F)F)C(F)(F)F` (stereo not drawn) [HFPO-TeA, perfluoro-(2,5,8-trimethyl-3,6,9-trioxadodecanoic) acid]?
Answer: presence of predicted biotransformation products (non-targeted analysis) (hepatocytes): None of the biotransformation products predicted using CTS were observed; Negative Control Data, Heat Treated (HT), 15 min (rat hepatocytes; heat treated rat hepatocytes, 1000 nM, 15 min, Ln concentration, Rep 1-3): 2.6401 and 2.4357 and 2.5979; Negative Control Data, Heat Treated (HT), 240 min (rat hepatocytes; heat treated rat hepatocytes, 1000 nM, 240 min, Ln concentration, Rep 1-3): 3.3942 and 3.4965 and 3.9620; Negative Control Data, No cells (NC), 15 min (rat hepatocytes; no cells, 1000 nM, 15 min, Ln concentration, Rep 1-3): 2.6401 and 2.4357 and 2.5979; Negative Control Data, No cells (NC), 240 min (rat hepatocytes; no cells, 1000 nM, 240 min, Ln concentration, Rep 1-3): 3.6957 and 3.6025 and 3.5122; Clin vitro (rat hepatocytes; rat hepatocytes, 1 µM): 0 µL/min/106 cells; Ln Concentration, 0 min (rat hepatocytes; suspended rat hepatocytes, 1000 nM, time 0 min, Rep 1-3): 3.0306 and 2.9008 and 2.9997; Ln Concentration, 15 min (rat hepatocytes; suspended rat hepatocytes, 1000 nM, time 15 min, Rep 1-3): 3.0932 and 2.2706 and 2.9515; Ln Concentration, 30 min (rat hepatocytes; suspended rat hepatocytes, 1000 nM, time 30 min, Rep 1-3): 4.2083 and 3.3638 and 2.7617; Ln Concentration, 60 min (rat hepatocytes; suspended rat hepatocytes, 1000 nM, time 60 min, Rep 1-3): 3.2078 and 2.9997 and 2.8429; Ln Concentration, 120 min (rat hepatocytes; suspended rat hepatocytes, 1000 nM, time 120 min, Rep 1-3): 4.0404 and 3.2267 and 2.8611; Ln Concentration, 240 min (rat hepatocytes; suspended rat hepatocytes, 1000 nM, time 240 min, Rep 1-3): 4.3810 and 4.0785 and 4.0446; Linear Regression Best-Fit Slope (Ln concentration vs time) (rat hepatocytes; suspended rat hepatocytes, 1000 nM, time in min): 0.001258; Negative Control Data, No cells (NC), Ln Concentration (human hepatocytes; 1000 nM, 15 min): 3.2431 and 3.8547 and 4.8392; Negative Control Data, No cells (NC), Ln Concentration (human hepatocytes; 1000 nM, 240 min): 4.3983 and 4.1513 and 4.1952; Clin vitro (human hepatocytes; human hepatocytes, 1 µM): 0 µL/min/106 cells; Negative Control Data, Heat Treated (HT), Ln Concentration (human hepatocytes; human hepatocytes, 1000 nM, 15 min): 3.2431 and 3.8547 and 4.8392; Negative Control Data, Heat Treated (HT), Ln Concentration (human hepatocytes; human hepatocytes, 1000 nM, 240 min): 3.9071 and 4.4271 and 4.0870; Ln Concentration (human hepatocytes; human hepatocytes, 1000 nM, time 0 min): 4.4318 and 4.5113 and 4.4280; Ln Concentration (human hepatocytes; human hepatocytes, 1000 nM, time 15 min): 4.5753 and 4.4697 and 3.8582; Ln Concentration (human hepatocytes; human hepatocytes, 1000 nM, time 30 min): 3.6875 and 3.5788 and 3.6553; Ln Concentration (human hepatocytes; human hepatocytes, 1000 nM, time 60 min): 3.0465 and 3.5032 and 3.8121; Ln Concentration (human hepatocytes; human hepatocytes, 1000 nM, time 120 min): 4.2197 and 4.3067 and 4.1488; Ln Concentration (human hepatocytes; human hepatocytes, 1000 nM, time 240 min): 3.9567 and 3.8156 and 4.0422; Linear Regression Best-Fit Slope (ln concentration vs time) (human hepatocytes; human hepatocytes, 1000 nM, time in min): 0.001224; Clhep (hepatic clearance) [1]: 0 L/h; Css ([1]; IVIVE, ID 0.042 mg/kg/hr, BW 70 kg): 19420 ng/mL; Css (steady-state concentration, plasma) ([1]; IVIVE, intake dosage 1 mg/kg/day, BW 70 kg): 29.34 µM and 29.3351 µM; fraction unbound ([1]; blood, fub=fup/(1-hemocrit ref value), hematocrit 0.45): 0.0226; Clint ([1]; scaled (HPGL 110, Vl 1596 g)): 0 µL/min
